The test addresses T1, HGFR (Homo sapiens, UniProt P08581).
T1 construct: purchased Upstate 14-526
The test is described as follows: HGFR continuous-coupled spectrophotometric assay. The format is biochemical. The conditions noted are these: for inhibition at 0.05 µM: at 50 nM, Table 5, library procedure 40, read-out: % inhibition (percent c-MET inhibition); for inhibition at 1 pM / inhibition at 1 µM: read-out: % Inhibition (percent c-MET inhibition); for inhibition at 1 µM: Table 8, library procedure 43.

Like-named read-outs stand apart in the source and are kept apart here.

T1 sequence (P08581 974-1390 limits assumed): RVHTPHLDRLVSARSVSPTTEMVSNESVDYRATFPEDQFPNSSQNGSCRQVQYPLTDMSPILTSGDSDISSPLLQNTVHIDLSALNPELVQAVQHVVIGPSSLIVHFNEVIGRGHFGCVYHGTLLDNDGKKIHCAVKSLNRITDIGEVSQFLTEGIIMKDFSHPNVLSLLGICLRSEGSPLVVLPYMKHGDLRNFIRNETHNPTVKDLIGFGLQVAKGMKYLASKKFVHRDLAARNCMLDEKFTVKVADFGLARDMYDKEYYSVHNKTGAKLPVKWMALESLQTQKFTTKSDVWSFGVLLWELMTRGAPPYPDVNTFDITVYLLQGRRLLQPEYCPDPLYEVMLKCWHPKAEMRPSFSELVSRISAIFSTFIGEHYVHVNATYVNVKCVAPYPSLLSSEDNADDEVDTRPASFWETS

As usually defined, the inhibition is the share of the control response that was lost under treatment. As for `CC(Oc1cc(-c2ccc(C(=O)N3CCC(c4cccnc4)C3)cc2)cnc1N)c1c(Cl)ccc(F)c1Cl` [Example L-161], the inhibition at 0.05 µM was determined as 79%.

For `Nc1ncc(C(=O)N2CCN(c3ccccn3)CC2)cc1OCc1c(Cl)cccc1Cl` [Example L-196], for the setting “Table 6, library procedure 41”, the inhibition at 1 pM came out at 34%.

In the case of `Nc1ncc(-c2ccc(C(=O)N3CCC(N4CCCC4)CC3)cc2)cc1OCc1ccc2ccccc2c1`, the inhibition at 1 pM (Table 7, library procedure 42) is 27%.

For `CN(CCc1ccccn1)CC1(O)CCN(C(=O)c2cnc(N)c(OCc3c(Cl)cccc3Cl)c2)C1` [Example L-339], the inhibition at 1 pM (Table 6, library procedure 41) came to 18%.

For the compound `Nc1ncc(C(=O)N2CCN(CCO)CC2)cc1OCc1c(Cl)cccc1Cl` [Example L-204], the inhibition at 1 pM (Table 6, library procedure 41) was 51%.

On to `Nc1ncc(-c2ccc(C(=O)N3CCC(N4CCCC4)CC3)cc2)cc1OC1OC(=O)c2ccccc21` (centres unmarked), for which, where the note is “Table 7, library procedure 42”, the inhibition at 1 pM was 4%.

For `CC(C)CCNC(=O)c1cnc(N)c(OCc2c(Cl)cccc2Cl)c1` [Example L-222], the inhibition at 1 pM (Table 6, library procedure 41) came out at 26%.

On to `CCCCOc1ccc(CNC(=O)c2cnc(N)c(OCc3c(Cl)cccc3Cl)c2)cc1` [Example L-304], for which the inhibition at 1 pM (Table 6, library procedure 41) was 18%.

Consider `Nc1ncc(-c2ccc(C(=O)N3CCC(N4CCCC4)CC3)cc2)cc1OCc1ccc(-c2ccnc(Br)n2)cc1`, for which, under “Table 7, library procedure 42”, the inhibition at 1 pM is 17%.

For `CC(Oc1cc(-c2ccc(C(=O)NCCc3ccncc3)cc2)cnc1N)c1c(Cl)ccc(F)c1Cl` [Example L-111], the inhibition at 0.05 µM worked out at 71%.

On to `CCN(CCN(C)C)C(=O)c1ccc(-c2cnc(N)c(OC(C)c3c(Cl)ccc(F)c3Cl)c2)cc1` [Example L-118], for which the inhibition at 0.05 µM is 86%.

Take `Nc1ncc(C(=O)N2CCC(COCc3ccccc3F)CC2)cc1OCc1c(Cl)cccc1Cl` [Example L-313]: under “Table 6, library procedure 41”, the inhibition at 1 pM was 10%.

On to `C[C@H](Oc1cc(-c2ccc(C(=O)N[C@H]3CC[C@H](CO)CC3)cc2)cnc1N)c1c(Cl)ccc(F)c1Cl` [Example L-174], for which the inhibition at 0.05 µM stood at 68%.

As for `Nc1ncc(C(=O)N[C@@H]2c3ccccc3C[C@@H]2O)cc1OCc1c(Cl)cccc1Cl` [Example L-230], the inhibition at 1 pM (Table 6, library procedure 41) is 23%.

`Nc1ncc(C(=O)N2CCCN(Cc3ccc(F)cc3)CC2)cc1OCc1c(Cl)cccc1Cl` [Example L-277]: the inhibition at 1 pM (Table 6, library procedure 41) turned out to be 26%.

On to `Nc1ncc(C(=O)N2CCC(Cc3ccc(F)cc3)CC2)cc1OCc1c(Cl)cccc1Cl` [Example L-302], for which, for the setting “Table 6, library procedure 41”, the inhibition at 1 pM was found to be 41%.

For the compound `Nc1ncc(C(=O)N2CCC(O)(Cc3ccccc3)CC2)cc1OCc1c(Cl)cccc1Cl` [Example L-231], the inhibition at 1 pM (Table 6, library procedure 41) is 62%.

Take `Nc1ncc(-c2ccc(C(=O)N3CCC(N4CCCC4)CC3)cc2)cc1OCc1csc2ccc(Cl)cc12`: the inhibition at 1 pM (Table 7, library procedure 42) is 37%.

As to `Nc1ncc(-c2ccc(C(=O)N3CCC(N4CCCC4)CC3)cn2)cc1OCc1ccc(-c2csnn2)cc1`, the inhibition at 1 pM (Table 7, library procedure 42) was found to be 41%.

For `CNC(=O)c1ccc(OC)c(-c2noc(COc3cc(-c4ccc(C(=O)N5CCC(N6CCCC6)CC5)cc4)cnc3N)n2)c1`, the inhibition at 1 pM (Table 7, library procedure 42) is 11%.

On to `Nc1ncc(C(=O)N2CCC3(CC2)CC(N2CCNC(=O)C2)CO3)cc1OCc1c(Cl)cccc1Cl` [Example L-318], for which the inhibition at 1 pM (Table 6, library procedure 41) is 17%.

On to `CC1CN(C(=O)c2ccc(-c3cnc(N)c(OCc4cc(F)cc(C(F)(F)F)c4)c3)cc2)CC(C)N1` (centres unmarked), for which the inhibition at 1 µM was 19%.

With `CN1CCC(N(C)C(=O)c2cnc(N)c(OCc3c(Cl)cccc3Cl)c2)C1` [Example L-225], the inhibition at 1 pM (Table 6, library procedure 41) was 33%.

For the compound `Nc1ncc(C(=O)N2CCC3(CCNC3=O)CC2)cc1OCc1c(Cl)cccc1Cl` [Example L-284], where the note is “Table 6, library procedure 41”, the inhibition at 1 pM came out at 27%.

Consider `Nc1ncc(-c2ccc(C(=O)N3CCC(N4CCCC4)CC3)cc2)cc1OCc1ccc(Br)cc1F`, for which the inhibition at 1 pM (Table 7, library procedure 42) was 31%.

As for `CCOC(=O)C1CCN(C(=O)c2ccc(COc3cc(-c4ccc(C(=O)N5CC(C)NC(C)C5)cc4)cnc3N)cc2)CC1` (centres unmarked), the inhibition at 1 µM stood at 12%.

Take `Nc1ncc(C(=O)NCc2ccc[nH]c2=O)cc1OCc1c(Cl)cccc1Cl` [Example L-310]: the inhibition at 1 pM (Table 6, library procedure 41) worked out at 16%.

For `CC1CN(C(=O)c2ccc(-c3cnc(N)c(OCc4cc(F)c(F)c(F)c4)c3)cc2)CC(C)N1` (centres unmarked), the inhibition at 1 µM stood at 11%.

Regarding `Nc1ncc(C(=O)NCCCO)cc1OCc1c(Cl)cccc1Cl` [Example L-180], for the setting “Table 6, library procedure 41”, the inhibition at 1 pM is 26%.

By Ki is commonly meant a dissociation constant, usually derived from enzyme kinetics or from competition with a known ligand. Regarding `CC(Oc1cc(-c2ccc(C(=O)N3CCCC3)cc2)cnc1N)c1c(Cl)ccc(F)c1Cl` (centres unmarked) [Example I-547, (4-{6-Amino-5-[1-(2,6-dichloro-3-fluoro-phenyl)-ethoxy]-pyridin-3-yl}-phenyl)-pyrrolidin-1-yl-methanone], where the note is “Table 3, column 'Ki (μM) or I (%)': cells without % sign, read-out: Ki”, the Ki came out at 0.067 µM.

As to `Nc1ncc(C(=O)N2CCNC(=O)CC2)cc1OCc1c(Cl)cccc1Cl` [Example L-285], the inhibition at 1 pM (Table 6, library procedure 41) amounted to 31%.

Turning to `Nc1ncc(-c2ccc(C(=O)N3CCC(N4CCCC4)CC3)cc2)cc1OCc1ccccn1`, the inhibition at 1 pM (Table 7, library procedure 42) turned out to be 16%.

Regarding `CC(Oc1cc(-c2ccc(C(=O)NCCOCCO)cc2)cnc1N)c1c(Cl)ccc(F)c1Cl` [Example L-13], the inhibition at 0.05 µM amounted to 76%.

For `C=C(Cl)/C(=C/O)COc1cc(C(=O)NC2COC3(CCN(Cc4[nH]cnc4C)CC3)C2)cnc1N` [Example L-329], the inhibition at 1 pM (Table 6, library procedure 41) turned out to be 30%.

Consider `CC(Oc1cc(C#CC(C)(C)NC(=O)N2C[C@@H](C)N[C@@H](C)C2)cnc1N)c1c(Cl)ccc(F)c1Cl` (stereo partly drawn) [Example I-433, (3R,5S)-3,5-Dimethyl-piperazine-1-carboxylic acid (3-{6-amino-5-[1-(2,6-dichloro-3-fluoro-phenyl)-ethoxy]-pyridin-3-yl}-1,1-dimethyl-prop-2-ynyl)-amide], for which, for the setting “cells prefixed Ki, read-out: Met Ki”, the Ki stood at 1.5 µM.

`CC(Oc1cc(-c2ccc(C(=O)N(C)CC#N)cc2)cnc1N)c1c(Cl)ccc(F)c1Cl` [Example L-99]: the inhibition at 0.05 µM amounted to 83%.

On to `CC1CCC(NC(=O)c2ccc(-c3cnc(N)c(OC(C)c4c(Cl)ccc(F)c4Cl)c3)cc2)CC1` [Example L-139], for which the inhibition at 0.05 µM is 60%.

On to `CC(Oc1cc(-c2ccc(C(=O)NCC(C)(C)CN(C)C)cc2)cnc1N)c1c(Cl)ccc(F)c1Cl` [Example L-25], for which the inhibition at 0.05 µM is 77%.

On to `CC1CN(C(=O)c2ccc(-c3cnc(N)c(OCc4c(F)cccc4C(F)(F)F)c3)cc2)CC(C)N1` (centres unmarked), for which the inhibition at 1 µM is 33%.

Turning to `Nc1ncc(C(=O)NCCc2nc3ccccc3s2)cc1OCc1c(Cl)cccc1Cl` [Example L-291], the inhibition at 1 pM (Table 6, library procedure 41) came to 26%.

Regarding `CC1CN(C(=O)c2ccc(-c3cnc(N)c(OCc4cc(-c5ccccc5)no4)c3)cc2)CC(C)N1` (centres unmarked), the inhibition at 1 µM was 16%.

Turning to `Nc1ncc(-c2ccc(C(=O)N3CCC(N4CCCC4)CC3)cc2)cc1OCc1cn2cc(Cl)ccc2n1`, the inhibition at 1 pM (Table 7, library procedure 42) worked out at 16%.

With `CC(Oc1cc(-c2ccc(C(=O)NC3CCC3)cc2)cnc1N)c1c(Cl)ccc(F)c1Cl` [Example L-70], the inhibition at 0.05 µM turned out to be 71%.

`COc1ccc(CNC(=O)c2ccc(-c3cnc(N)c(OC(C)c4c(Cl)ccc(F)c4Cl)c3)cc2)cc1OC` [Example L-34]: the inhibition at 0.05 µM was found to be 62%.

For the compound `CCN(C)C(=O)c1ccc(-c2cnc(N)c(OC(C)c3c(Cl)ccc(F)c3Cl)c2)cc1` [Example L-126], the inhibition at 0.05 µM was determined as 52%.

For `Nc1ncc(C(=O)N2CCC(C(=O)c3ccccc3)CC2)cc1OCc1c(Cl)cccc1Cl` [Example L-252], the inhibition at 1 pM (Table 6, library procedure 41) was 32%.

As to `COc1cc(CCNC(=O)c2cnc(N)c(OCc3c(Cl)cccc3Cl)c2)cc(OC)c1O` [Example L-247], the inhibition at 1 pM (Table 6, library procedure 41) came to 25%.

The values are drawn from patent US20050009840A1 (SUGEN, INC., priority 2003, published 2005).
